pEC50, pKi: −log10 of the molar value.
Key:
Format in all cases: cell-based
[1] = target: T1, Neuronal acetylcholine receptor subunit alpha-7 (Homo sapiens, UniProt P36544); test: […] to human alpha7 nAChR expressed in xenopus oocytes preincubated for 10 mins followed by acetylcholine addition by patch clamp electrophysiological assay relative to acetylcholine; set-up: concentration or dose not given beside the values
[2] = target: T1, Neuronal acetylcholine receptor subunit alpha-7; test: Agonist activity at human alpha7 nAChR expressed in xenopus oocytes preincubated for 10 mins followed by acetylcholine addition by patch clamp electrophysiological assay
[3] = target: T1, Neuronal acetylcholine receptor subunit alpha-7; test: Displacement of [3H]-MLA from human alpha7 nAChR expressed in xenopus oocytes in presence of alpha7 nAChR positive allosteric modulator PNU-120596
[4] = target: T1, Neuronal acetylcholine receptor subunit alpha-7; test: Displacement of [3H]-MLA from human alpha7 nAChR expressed in xenopus oocytes

T1 sequence (P36544 whole entry): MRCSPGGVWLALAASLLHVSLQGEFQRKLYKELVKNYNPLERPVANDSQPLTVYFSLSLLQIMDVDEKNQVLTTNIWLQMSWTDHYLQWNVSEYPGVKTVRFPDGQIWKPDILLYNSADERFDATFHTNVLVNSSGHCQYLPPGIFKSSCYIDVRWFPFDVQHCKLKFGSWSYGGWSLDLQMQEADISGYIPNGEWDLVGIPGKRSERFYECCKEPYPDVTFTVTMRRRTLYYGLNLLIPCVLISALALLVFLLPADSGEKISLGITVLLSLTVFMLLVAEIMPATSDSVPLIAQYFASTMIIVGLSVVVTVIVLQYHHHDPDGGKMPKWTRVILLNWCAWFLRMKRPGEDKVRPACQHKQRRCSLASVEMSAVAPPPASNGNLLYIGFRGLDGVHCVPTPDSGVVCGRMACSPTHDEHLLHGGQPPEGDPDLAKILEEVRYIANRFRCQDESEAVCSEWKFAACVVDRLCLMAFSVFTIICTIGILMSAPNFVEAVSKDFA

## Cc1cccc(-c2cccc3cc(C(=O)N[C@H]4CN5CCC4CC5)cn23)c1
[1]
  Activity: 63.9%
[2]
  pEC50: 5.40

## O=C(N[C@H]1CN2CCC1CC2)c1cc2ccc(-c3ccccc3)cn2c1
[1]
  Activity: < 1%
[2]
  pEC50: < 4.70

## CCOC(=O)c1cc(C(=O)c2ccc(F)cc2)n2ccc(C(=O)N[C@H]3CN4CCC3CC4)cc12
[1]
  Activity: < 1%
[2]
  pEC50: < 4.70

## O=C(N[C@H]1CN2CCC1CC2)c1cc2cccc(-c3ccsc3)n2c1
[1]
  Activity: 40.8%
[2]
  pEC50: 5.45

## O=C(N[C@H]1CN2CCC1CC2)c1cc2cccc(-c3ccc(-c4ccccc4)cc3)n2c1
[1]
  Activity: 18%
[2]
  pEC50: 4.85

## CCOC(=O)c1cc(C(=O)c2ccc(Cl)c(Cl)c2)n2ccc(C(=O)N[C@H]3CN4CCC3CC4)cc12
[1]
  Activity: < 1%
[2]
  pEC50: < 4.70

## O=C(N[C@H]1CN2CCC1CC2)c1cc2ccc(-c3ccsc3)cn2c1
[1]
  Activity: < 1%
[2]
  pEC50: < 4.70

## CCOC(=O)c1cc(C(=O)c2cccc(Cl)c2)n2ccc(C(=O)N[C@H]3CN4CCC3CC4)cc12
[1]
  Activity: < 1%
[2]
  pEC50: < 4.70

## O=C(N[C@H]1CN2CCC1CC2)c1cc(C(=O)c2ccccc2)n2ccccc12
[1]
  Activity: < 1%
[2]
  pEC50: < 4.70

## O=C(N[C@H]1CN2CCC1CC2)c1cc2c(F)cccn2c1
[1]
  Activity: 63.7%
[2]
  pEC50: 5.55

## O=C(N[C@H]1CN2CCC1CC2)c1cc2ccc(Cl)cn2c1
[1]
  Activity: < 1%
[2]
  pEC50: < 4.70

## O=C(N[C@H]1CN2CCC1CC2)c1cc2cccc(Cl)c2s1 [ENCENICLINE]
[1]
  Activity: 33.5%
[2]
  pEC50: 6.47

## CN(C)c1cccc(-c2cccc3cc(C(=O)N[C@H]4CN5CCC4CC5)cn23)c1
[1]
  Activity: < 1%
[2]
  pEC50: < 4.70

## O=C(N[C@H]1CN2CCC1CC2)c1cc2cccc(-c3ccccc3)n2c1
[1]
  Activity: 59.8%
[2]
  pEC50: 5.40

## O=C(N[C@H]1CN2CCC1CC2)c1cnc2ccccn12
[1]
  Activity: < 1%
[2]
  pEC50: < 4.70

## O=C(N[C@H]1CN2CCC1CC2)c1cc(C(=O)c2ccccc2F)n2ccccc12
[1]
  Activity: < 1%
[2]
  pEC50: < 4.70

## Cc1nc2c(Br)cccn2c1C(=O)N[C@H]1CN2CCC1CC2
[1]
  Activity: < 1%
[2]
  pEC50: < 4.70

## O=C(N[C@H]1CN2CCC1CC2)c1cc2ccc(Br)cn2c1
[1]
  Activity: 86.3%
[2]
  pEC50: 5.02

## CCOC(=O)c1cc(C(=O)c2cccc([N+](=O)[O-])c2)n2ccc(C(=O)N[C@H]3CN4CCC3CC4)cc12
[1]
  Activity: < 1%
[2]
  pEC50: < 4.70

## CCOC(=O)c1cc(C(=O)c2cccc(F)c2)n2ccc(C(=O)N[C@H]3CN4CCC3CC4)cc12
[1]
  Activity: < 1%
[2]
  pEC50: < 4.70

## Cc1nc2ccc(F)cn2c1C(=O)N[C@H]1CN2CCC1CC2
[1]
  Activity: < 1%
[2]
  pEC50: < 4.70

## O=C(N[C@H]1CN2CCC1CC2)c1cc2c(Cl)cccn2c1
[1]
  Activity: < 1%
[2]
  pEC50: < 4.70

## CC(C)(C)c1ccc(-c2cccc3cc(C(=O)N[C@H]4CN5CCC4CC5)cn23)cc1
[1]
  Activity: 23.9%
[2]
  pEC50: 5.07

## Cc1cccc2cc(C(=O)N[C@H]3CN4CCC3CC4)cn12
[1]
  Activity: 66%
[2]
  pEC50: 5.67

## O=C(N[C@H]1CN2CCC1CC2)c1cc2c(Br)cccn2c1
[1]
  Activity: 75.9%
[2]
  pEC50: 5.32

## Cc1ccccc1-c1cccc2cc(C(=O)N[C@H]3CN4CCC3CC4)cn12
[1]
  Activity: 17.6%
[2]
  pEC50: 5.33

## O=C(N[C@H]1CN2CCC1CC2)c1cc2cc(-c3ccccc3)ccn2c1
[1]
  Activity: < 1%
[2]
  pEC50: < 4.70

## O=C(N[C@H]1CN2CCC1CC2)c1cc(C(=O)c2ccccc2Br)n2ccccc12
[1]
  Activity: < 1%
[2]
  pEC50: < 4.70

## CCOC(=O)c1cc(C(=O)c2cccc(C(F)(F)F)c2)n2ccc(C(=O)N[C@H]3CN4CCC3CC4)cc12
[1]
  Activity: < 1%
[2]
  pEC50: < 4.70

## CCOC(=O)c1cc(C(=O)c2ccccc2)n2cccc(C(=O)N[C@H]3CN4CCC3CC4)c12
[1]
  Activity: < 1%
[2]
  pEC50: < 4.70

## O=C(N[C@H]1CN2CCC1CC2)c1cc2c(-c3ccccc3)cccn2c1
[1]
  Activity: < 1%
[2]
  pEC50: < 4.70

## CCOC(=O)c1cc(C(=O)c2ccccc2)n2cc(C(=O)N[C@H]3CN4CCC3CC4)ccc12
[1]
  Activity: < 1%
[2]
  pEC50: < 4.70

## Cc1ccccc1-c1ccc2cc(C(=O)N[C@H]3CN4CCC3CC4)cn2c1
[1]
  Activity: < 1%
[2]
  pEC50: < 4.70

## CCOC(=O)c1cc(C(=O)c2ccccc2O)n2ccc(C(=O)N[C@H]3CN4CCC3CC4)cc12
[1]
  Activity: < 1%
[2]
  pEC50: < 4.70

## O=C(N[C@H]1CN2CCC1CC2)c1cc(C(=O)c2ccc(-c3ccccc3)cc2)n2ccccc12
[1]
  Activity: < 1%
[2]
  pEC50: < 4.70

## O=C(N[C@H]1CN2CCC1CC2)c1cc(C(=O)c2ccc3ccccc3c2)n2ccccc12
[1]
  Activity: < 1%
[2]
  pEC50: < 4.70

## O=C(N[C@H]1CN2CCC1CC2)c1cc(C(=O)c2ccc(Cl)cc2)n2ccccc12
[1]
  Activity: < 1%
[2]
  pEC50: < 4.70

## O=C(N[C@H]1CN2CCC1CC2)c1cc2ccccn2c1
[1]
  Activity: 57.1%
[2]
  pEC50: 5.08

## Cc1cccc(-c2ccc3cc(C(=O)N[C@H]4CN5CCC4CC5)cn3c2)c1
[1]
  Activity: < 1%
[2]
  pEC50: < 4.70

## O=C(N[C@H]1CN2CCC1CC2)c1cc2cccc(Br)n2c1
[1]
  Activity: 64.3%
[3]
  pKi: 7.03
[4]
  pKi: 7.83

## O=C(N[C@H]1CN2CCC1CC2)c1cc2ccc(-c3cccs3)cn2c1
[1]
  Activity: < 1%
[2]
  pEC50: < 4.70

## O=C(N[C@H]1CN2CCC1CC2)c1cc2cc(Cl)ccn2c1
[1]
  Activity: 19.6%
[2]
  pEC50: 5.16

## O=C(N[C@H]1CN2CCC1CC2)c1cc(C(=O)c2cccc(Cl)c2)n2ccccc12
[1]
  Activity: < 1%
[2]
  pEC50: < 4.70

## CCOC(=O)c1cc(C(=O)c2ccccc2)n2ccc(C(=O)N[C@H]3CN4CCC3CC4)cc12
[1]
  Activity: < 1%
[2]
  pEC50: < 4.70

## O=C(N[C@H]1CN2CCC1CC2)c1cc2cccc(Cl)n2c1
[1]
  Activity: 63.2%
[2]
  pEC50: 5.60

## O=C(N[C@H]1CN2CCC1CC2)c1cc(C(=O)c2cccc(Br)c2)n2ccccc12
[1]
  Activity: < 1%
[2]
  pEC50: < 4.70

## CC(C)(C)c1ccc(-c2ccc3cc(C(=O)N[C@H]4CN5CCC4CC5)cn3c2)cc1
[1]
  Activity: < 1%
[2]
  pEC50: < 4.70

## O=C(N[C@H]1CN2CCC1CC2)c1cc2cc(Br)ccn2c1
[1]
  Activity: 34.7%
[2]
  pEC50: 4.98
